Data reported in ChEMBL document CHEMBL5512622, “Ecto-nucleotide pyrophosphatase/phosphodiesterase 1 inhibitors: Research progress and prospects” (Eur J Med Chem, 2024).

How the values were obtained:
[1] = target: T1, Ectonucleotide pyrophosphatase/phosphodiesterase family member 1 (Homo sapiens, UniProt P22413); experiment: Inhibition of ENPP1 (unknown origin) using cGAMP as substrate assessed as inhibition constant at pH 7.4
T1 sequence (P22413 whole entry): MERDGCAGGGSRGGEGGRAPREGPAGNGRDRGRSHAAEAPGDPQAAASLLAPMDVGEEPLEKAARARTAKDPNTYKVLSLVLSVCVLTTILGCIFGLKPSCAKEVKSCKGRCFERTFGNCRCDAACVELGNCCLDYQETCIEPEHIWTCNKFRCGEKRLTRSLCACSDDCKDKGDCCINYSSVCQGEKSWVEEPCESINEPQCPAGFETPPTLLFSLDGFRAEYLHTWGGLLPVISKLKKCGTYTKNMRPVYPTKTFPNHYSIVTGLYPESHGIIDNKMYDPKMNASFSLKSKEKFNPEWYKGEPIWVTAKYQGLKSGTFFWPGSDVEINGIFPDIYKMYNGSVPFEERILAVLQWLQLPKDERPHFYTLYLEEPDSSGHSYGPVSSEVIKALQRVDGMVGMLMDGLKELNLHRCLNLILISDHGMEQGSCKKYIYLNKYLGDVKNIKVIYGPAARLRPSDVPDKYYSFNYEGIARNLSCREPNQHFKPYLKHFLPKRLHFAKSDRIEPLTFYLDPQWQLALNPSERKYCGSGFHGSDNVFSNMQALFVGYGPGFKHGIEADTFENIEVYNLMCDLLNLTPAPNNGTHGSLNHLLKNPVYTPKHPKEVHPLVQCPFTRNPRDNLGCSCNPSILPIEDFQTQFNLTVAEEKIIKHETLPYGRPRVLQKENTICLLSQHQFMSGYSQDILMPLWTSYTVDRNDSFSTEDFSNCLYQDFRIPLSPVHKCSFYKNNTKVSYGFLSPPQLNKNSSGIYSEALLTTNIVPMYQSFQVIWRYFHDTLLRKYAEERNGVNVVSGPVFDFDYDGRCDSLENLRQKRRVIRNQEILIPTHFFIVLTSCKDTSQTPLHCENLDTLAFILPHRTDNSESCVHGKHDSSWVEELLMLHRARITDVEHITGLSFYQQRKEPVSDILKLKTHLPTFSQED

[2] = Cmax in CD-1 mouse at 50 mg/kg, po measured after 24 hrs by LC-MS/MS analysis; assay type: ADME, organism-based; conditions: in vivo
[3] = AUClast in CD-1 mouse at 50 mg/kg, po measured after 24 hrs by LC-MS/MS analysis; assay type: ADME, organism-based; conditions: in vivo
[4] = target: T2, Ectonucleotide pyrophosphatase/phosphodiesterase family member 1 (Mus musculus, UniProt P06802); experiment: Inhibition of ENPP1 in mouse plasma using [32P]cGAMP as substrate; assay type: cell-free
T2 sequence (P06802 whole entry): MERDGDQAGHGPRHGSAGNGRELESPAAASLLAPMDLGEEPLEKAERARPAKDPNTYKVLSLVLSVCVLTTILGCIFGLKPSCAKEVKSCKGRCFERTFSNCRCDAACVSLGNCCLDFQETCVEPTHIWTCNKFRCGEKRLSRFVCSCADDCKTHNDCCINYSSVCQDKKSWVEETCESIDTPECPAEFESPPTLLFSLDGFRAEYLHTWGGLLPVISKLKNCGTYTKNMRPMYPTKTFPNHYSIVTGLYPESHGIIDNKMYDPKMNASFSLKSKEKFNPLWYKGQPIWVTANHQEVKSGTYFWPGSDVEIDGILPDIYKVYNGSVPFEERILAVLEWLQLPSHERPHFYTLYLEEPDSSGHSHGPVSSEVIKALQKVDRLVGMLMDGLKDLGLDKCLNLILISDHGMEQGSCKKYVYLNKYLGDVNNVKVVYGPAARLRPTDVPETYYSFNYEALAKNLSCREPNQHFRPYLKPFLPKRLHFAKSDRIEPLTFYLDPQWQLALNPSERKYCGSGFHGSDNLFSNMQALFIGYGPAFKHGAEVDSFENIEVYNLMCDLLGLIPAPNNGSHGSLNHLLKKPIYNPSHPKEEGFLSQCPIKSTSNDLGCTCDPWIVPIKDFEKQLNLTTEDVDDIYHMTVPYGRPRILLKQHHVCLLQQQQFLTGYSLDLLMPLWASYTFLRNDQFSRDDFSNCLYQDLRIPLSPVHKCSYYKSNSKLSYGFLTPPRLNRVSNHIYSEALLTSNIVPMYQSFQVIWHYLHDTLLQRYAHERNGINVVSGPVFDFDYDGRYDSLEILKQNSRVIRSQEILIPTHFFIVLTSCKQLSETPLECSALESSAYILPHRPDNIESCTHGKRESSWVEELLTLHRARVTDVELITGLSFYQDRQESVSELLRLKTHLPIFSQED

[5] = target: T1, Ectonucleotide pyrophosphatase/phosphodiesterase family member 1; experiment: Inhibition of ENNP1 (unknown origin) using 2',3'-cGAMP as substrate preincubated with compound followed by substrate addition and measured after 60 mins by AMP-Glo reagent based assay
[6] = target: T1, Ectonucleotide pyrophosphatase/phosphodiesterase family member 1; experiment: Inhibition of ENPP1 in HEK293 cells using 2',3'-cGAMP as substrate by AMP-Glo assay; assay type: cell-based
[7] = Cmax in ICR mouse at 5 mg/kg, po measured after 24 hrs by LC/MS/MS analysis; assay type: ADME, organism-based; conditions: in vivo
[8] = Half-life in ICR mouse at 5 mg/kg, po measured after 24 hrs by LC/MS/MS analysis; assay type: ADME, organism-based; conditions: in vivo
[9] = AUC in ICR mouse at 5 mg/kg, po measured after 24 hrs by LC/MS/MS analysis; assay type: ADME, organism-based; conditions: in vivo
[10] = target: T3, Ectonucleotide pyrophosphatase/phosphodiesterase family member 1 (Homo sapiens) (UniProt P22413); experiment: Binding affinity to recombinant human ENPP1 assessed as thermal stabilization by measuring change in melting temperature incubated for 5 mins by SYPRO orange dye based thermal shift assay
T3 sequence (whole entry): T1 sequence (P22413 whole entry)

[11] = target: T1, Ectonucleotide pyrophosphatase/phosphodiesterase family member 1; experiment: Inhibition of recombinant human ENPP1 using 2',3'-cGAMP as substrate preincubated for 5 to 10 mins followed by substrate addition and measured after 90 mins by […] assay
[12] = target: T1, Ectonucleotide pyrophosphatase/phosphodiesterase family member 1; experiment: Inhibition of recombinant human ENPP1 using ATP as substrate assessed as inhibition constant incubated for 30 mins by Lineweaver-Burk plot analysis
[13] = target: T1, Ectonucleotide pyrophosphatase/phosphodiesterase family member 1; experiment: Inhibition of ENPP1 (unknown origin) using TMP-pNP as substrate preincubated for 10 mins followed by substrate addition and measured immediately under pH 8.8 by absorbance based multimode plate reader analysis
MDA-MB-231 = experiment: Antiproliferative activity against human MDA-MB-231 cells incubated for 48 hrs by CCK8 assay; conditions: MDA-MB-231, 48 h
[14] = target: T1, Ectonucleotide pyrophosphatase/phosphodiesterase family member 1; experiment: Inhibition of recombinant human ENPP1 using p-NP-TMP as substrate incubated for 45 mins by absorbance based analysis
[15] = target: T1, Ectonucleotide pyrophosphatase/phosphodiesterase family member 1; experiment: Inhibition of human ENPP-1 using 2',3'-cGAMP as substrate preincubated for 15 mins followed by substrate addition and measured after 30 mins by AMP-Glo reagent based assay
[16] = target: T1, Ectonucleotide pyrophosphatase/phosphodiesterase family member 1; experiment: Inhibition of recombinant human ENPP-1 using AMP-pNP as substrate incubated for 20 mins by absorbance based plate reader analysis

For `COc1cccc2c(N3CCC(CCP(=O)(O)O)CC3)ncnc12`, the Ki [1] was < 2 nM, the Cmax [2] was 67.2 ng/mL and the AUC(0-t) at 24 h [3] was 344 ng·h/mL. It also gave a Ki [4] of 4 nM.
For `COc1ncc2nc(C(F)(F)F)n(Cc3ncc(S(N)(=O)=O)cc3F)c2c1-c1ccccc1`, the IC50 [5] was < 1 nM.
In the case of `COc1cccc2c(N3CCC(CC(CNC(=O)[C@@H](N)C(C)(C)C)P(=O)(O)O)CC3)ncnc12` (stereo partly specified), the Ki [1] is reported as < 10 nM, the Cmax [2] is reported as 1680 ng/mL and the AUC(0-t) at 24 h [3] is reported as 4130 ng·h/mL. For the same compound, the IC50 [6] was < 10 nM.
For `COc1ccc2c(Oc3ccc(CC(=O)NO)cc3)ccnc2n1`, the Cmax [7] was 736 ng/mL, the half-life [8] was 3.26 h and the AUC at 24 h [9] was 619 ng·h/mL.
In the case of `COc1ccc(NC(=O)CSc2nc3c(C)c(C#N)ncc3[nH]2)cc1O`, the ΔTm [10] is reported as 1.11 °C.
With `COc1ccc2c(c1)nnn2-c1ccc(CNS(N)(=O)=O)c(F)c1` the IC50 [11] was < 1000 nM.
Compound `Nc1ncnc2c1ncn2[C@@H]1O[C@H](COP(=O)(O)CP(=O)(O)O)[C@@H](O)[C@H]1O` [PHOSPHOMETHYLPHOSPHONIC ACID ADENOSYL ESTER] has a Ki [12] of 5000 nM.
In the case of `NC(=O)c1ccc2c(ncn2Cc2ccc(B(O)O)cc2)n1`, the IC50 [13] is reported as < 10 nM.
With `NC(=O)c1c[nH]c2c(NCc3ccc(B(O)O)cc3)ncnc12` the Ki [13] was < 100 nM.
In the case of `COc1cc2c(-c3ccc(CNS(N)(=O)=O)c(F)c3)n[nH]c(=O)c2cc1OC`, the IC50 [11] is reported as < 1000 nM.
In the case of `COc1ccc2[nH]c(SCc3nc4cc(F)ccc4c(=O)[nH]3)nc2c1`, the IC50 (MDA-MB-231) is reported as < 1000 nM.
For `Nc1ncnc2c1ncn2[C@@H](C=O)O[C@@H](C=O)COP(=O)(O)OP(=O)(O)OP(=O)(O)O`, the Ki [12] was 5000 nM.
In the case of `COc1cccc2c(N3CCC(CCP(=O)(O)O)CC3)c(C#N)cnc12`, the Ki [1] is reported as < 2 nM.
In the case of `NC(=O)c1c[nH]c2c(NCc3ccc(P(=O)(O)O)cc3)ncnc12`, the Ki [13] is reported as < 100 nM.
For `COc1ccc(NC(=O)CSc2nc(C(=O)OCC(O)CO)c[nH]2)cc1OC` (stereo unspecified), the IC50 [14] was < 200 nM.
`CSc1nc(N)c2ncn([C@@H]3O[C@H](COP(=O)(O)OP(=O)(O)O)[C@@H](O)[C@H]3O)c2n1` gave a Ki [12] of 5000 nM.
For `COc1cc2ncc3ncn(Cc4ccc(CS(N)(=O)=O)cn4)c3c2cc1OC`, the IC50 [15] was < 100 nM and the IC50 [16] was < 100 nM.
With `COc1ccc(NC(=O)CSc2nc(C(N)=O)c[nH]2)cc1OC` the IC50 [14] was < 200 nM.
`CSc1nc(N)c2ncn([C@@H]3O[C@H](COP(=O)(O)OP(=O)(O)OP(=O)(O)O)[C@@H](O)[C@H]3O)c2n1` showed a Ki [12] of 5000 nM.
For `Nc1ccc(F)c(-c2ccnc3c2CCC(=O)N3)c1`, the IC50 [11] was < 1000 nM.
For `COc1ccc(NC(=O)CSc2nc(C(=O)O)c[nH]2)cc1Cl`, the IC50 [14] was < 200 nM.
In the case of `Nc1ncnc2c1ncn2[C@@H]1O[C@H](COP(=O)(O)OP(=O)(O)OP(=O)(O)O)[C@@H](OC(=O)c2ccc(C(=O)c3ccccc3)cc2)[C@H]1O`, the Ki [12] is reported as 5000 nM.
